Results taken from the supplement of paper PMC10307832.

Assays:
Assay in all cases: relative viability (nuclei count vs DMSO), 5 days (fraction); higher = more cells survive
201T = test system: 201T
Summary of the method: (§1)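 Lung cancer cell lines in 1536-well plates got either a single drug or a fixed anchor-drug dose together with five library-drug doses (not always all listed) in √10 steps, by pin tool, on the day after seeding. Nuclei were counted after 5 days, and relative viability is the treated-to-vehicle ratio of nuclei counts. Values are medians of duplicate plates.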

COR-L23 = test system: COR-L23
Summary of the method: as §1

EPLC-272H = test system: EPLC-272H
Summary of the method: as §1

H3255 = test system: H3255
Summary of the method: as §1

HCC-44 = test system: HCC-44
Summary of the method: as §1

LOU-NH91 = test system: LOU-NH91
Summary of the method: as §1

NCI-H1650 = test system: NCI-H1650
Summary of the method: as §1

NCI-H1734 = test system: NCI-H1734
Summary of the method: as §1

NCI-H1793 = test system: NCI-H1793
Summary of the method: as §1

NCI-H1993 = test system: NCI-H1993
Summary of the method: as §1

NCI-H2023 = test system: NCI-H2023
Summary of the method: as §1

NCI-H2085 = test system: NCI-H2085
Summary of the method: as §1

NCI-H2170 = test system: NCI-H2170
Summary of the method: as §1

NCI-H2347 = test system: NCI-H2347
Summary of the method: as §1

NCI-H2405 = test system: NCI-H2405
Summary of the method: as §1

NCI-H3122 = test system: NCI-H3122
Summary of the method: as §1

NCI-H441 = test system: NCI-H441
Summary of the method: as §1

NCI-H520 = test system: NCI-H520
Summary of the method: as §1

NCI-H647 = test system: NCI-H647
Summary of the method: as §1

PC-14 = test system: PC-14
Summary of the method: as §1

RERF-LC-KJ = test system: RERF-LC-KJ
Summary of the method: as §1

With `NC(=O)Nc1cc(-c2cccc(F)c2)sc1C(=O)N[C@H]1CCCNC1` [AZD7762] + CC1(C)CCC(c2ccc(Cl)cc2)=C(CN2CCN(c3ccc(C(=O)NS(=O)(=O)c4ccc(N[C@H](CCN5CCOCC5)CSc5ccccc5)c(S(=O)(=O)C(F)(F)F)c4)cc3)CC2)C1 [Navitoclax] (partner 0.5 µM) the relative viability (201T; first compound 0.01 µM) was 1.18, the relative viability (201T; first compound 0.03162 µM) was 1.23 and the relative viability (201T; first compound 0.1 µM) was 1.21. It also gave a relative viability (201T; first compound 0.3162 µM) of 1.25, a relative viability (201T; first compound 1 µM) of 1.27 and a relative viability (COR-L23; first compound 0.01 µM) of 1.28. It also gave a relative viability (COR-L23; first compound 0.03162 µM) of 1.01, a relative viability (COR-L23; first compound 0.1 µM) of 1.01 and a relative viability (COR-L23; first compound 0.3162 µM) of 0.891. The relative viability (COR-L23; first compound 1 µM) was 0.194, the relative viability (EPLC-272H; first compound 0.01 µM) was 1.17 and the relative viability (EPLC-272H; first compound 0.03162 µM) was 1.18. It also gave a relative viability (EPLC-272H; first compound 0.1 µM) of 1.15, a relative viability (EPLC-272H; first compound 0.3162 µM) of 1.37 and a relative viability (EPLC-272H; first compound 1 µM) of 0.783. The relative viability (H3255; first compound 0.01 µM) was 0.51, the relative viability (H3255; first compound 0.03162 µM) was 0.509 and the relative viability (H3255; first compound 0.1 µM) was 0.526. The relative viability (H3255; first compound 0.3162 µM) was 0.524, the relative viability (H3255; first compound 1 µM) was 0.448 and the relative viability (HCC-44; first compound 0.01 µM) was 1.1. The relative viability (HCC-44; first compound 0.03162 µM) was 0.933, the relative viability (HCC-44; first compound 0.1 µM) was 1.01 and the relative viability (HCC-44; first compound 0.3162 µM) was 0.901. It also gave a relative viability (HCC-44; first compound 1 µM) of 1.01, a relative viability (LOU-NH91; first compound 0.01 µM) of 0.753 and a relative viability (LOU-NH91; first compound 0.03162 µM) of 0.673. For the same molecule, the relative viability (LOU-NH91; first compound 0.1 µM) was 0.619, the relative viability (LOU-NH91; first compound 0.3162 µM) was 0.562 and the relative viability (LOU-NH91; first compound 1 µM) was 0.4. For the same molecule, the relative viability (NCI-H1650; first compound 0.01 µM) was 1.33, the relative viability (NCI-H1650; first compound 0.03162 µM) was 1.42 and the relative viability (NCI-H1650; first compound 0.1 µM) was 1.22. It also gave a relative viability (NCI-H1650; first compound 0.3162 µM) of 0.917, a relative viability (NCI-H1650; first compound 1 µM) of 0.327 and a relative viability (NCI-H1734; first compound 0.01 µM) of 0.995. For the same molecule, the relative viability (NCI-H1734; first compound 0.03162 µM) was 0.892, the relative viability (NCI-H1734; first compound 0.1 µM) was 0.978 and the relative viability (NCI-H1734; first compound 0.3162 µM) was 0.891. It also gave a relative viability (NCI-H1734; first compound 1 µM) of 0.606, a relative viability (NCI-H1793; first compound 0.01 µM) of 0.437 and a relative viability (NCI-H1793; first compound 0.03162 µM) of 0.645. It also gave a relative viability (NCI-H1793; first compound 0.1 µM) of 0.476, a relative viability (NCI-H1793; first compound 0.3162 µM) of 0.368 and a relative viability (NCI-H1793; first compound 1 µM) of 0.211. It also gave a relative viability (NCI-H1993; first compound 0.01 µM) of 0.943, a relative viability (NCI-H1993; first compound 0.03162 µM) of 1.04 and a relative viability (NCI-H1993; first compound 0.1 µM) of 0.846. For the same molecule, the relative viability (NCI-H1993; first compound 0.3162 µM) was 0.983, the relative viability (NCI-H1993; first compound 1 µM) was 0.823 and the relative viability (NCI-H2023; first compound 0.01 µM) was 0.992. It also gave a relative viability (NCI-H2023; first compound 0.03162 µM) of 0.771, a relative viability (NCI-H2023; first compound 0.1 µM) of 0.663 and a relative viability (NCI-H2023; first compound 0.3162 µM) of 0.287. The relative viability (NCI-H2023; first compound 1 µM) was 0.118, the relative viability (NCI-H2085; first compound 0.01 µM) was 1.27 and the relative viability (NCI-H2085; first compound 0.03162 µM) was 1.11. It also gave a relative viability (NCI-H2085; first compound 0.1 µM) of 1.24, a relative viability (NCI-H2085; first compound 0.3162 µM) of 1.25 and a relative viability (NCI-H2085; first compound 1 µM) of 1.03. The relative viability (NCI-H2170; first compound 0.01 µM) was 0.62, the relative viability (NCI-H2170; first compound 0.03162 µM) was 0.702 and the relative viability (NCI-H2170; first compound 0.1 µM) was 0.577. The relative viability (NCI-H2170; first compound 0.3162 µM) was 0.653, the relative viability (NCI-H2170; first compound 1 µM) was 0.584 and the relative viability (NCI-H2347; first compound 0.01 µM) was 0.829. For the same molecule, the relative viability (NCI-H2347; first compound 0.03162 µM) was 0.934, the relative viability (NCI-H2347; first compound 0.1 µM) was 0.935 and the relative viability (NCI-H2347; first compound 0.3162 µM) was 0.991. It also gave a relative viability (NCI-H2347; first compound 1 µM) of 0.982, a relative viability (NCI-H2405; first compound 0.01 µM) of 0.812 and a relative viability (NCI-H2405; first compound 0.03162 µM) of 0.925. It also gave a relative viability (NCI-H2405; first compound 0.1 µM) of 0.873, a relative viability (NCI-H2405; first compound 0.3162 µM) of 0.675 and a relative viability (NCI-H2405; first compound 1 µM) of 0.244. It also gave a relative viability (NCI-H3122; first compound 0.01 µM) of 0.97, a relative viability (NCI-H3122; first compound 0.03162 µM) of 1.03 and a relative viability (NCI-H3122; first compound 0.1 µM) of 1.01. The relative viability (NCI-H3122; first compound 0.3162 µM) was 0.995, the relative viability (NCI-H3122; first compound 1 µM) was 1.05 and the relative viability (NCI-H441; first compound 0.01 µM) was 0.803. For the same molecule, the relative viability (NCI-H441; first compound 0.03162 µM) was 0.684, the relative viability (NCI-H441; first compound 0.1 µM) was 0.721 and the relative viability (NCI-H441; first compound 0.3162 µM) was 0.479. For the same molecule, the relative viability (NCI-H441; first compound 1 µM) was 1.1, the relative viability (NCI-H520; first compound 0.01 µM) was 1.11 and the relative viability (NCI-H520; first compound 0.03162 µM) was 1.13. The relative viability (NCI-H520; first compound 0.1 µM) was 1.07, the relative viability (NCI-H520; first compound 0.3162 µM) was 0.595 and the relative viability (NCI-H520; first compound 1 µM) was 0.45. The relative viability (NCI-H647; first compound 0.01 µM) was 1.33, the relative viability (NCI-H647; first compound 0.03162 µM) was 1.08 and the relative viability (NCI-H647; first compound 0.1 µM) was 0.969. The relative viability (NCI-H647; first compound 0.3162 µM) was 0.858, the relative viability (NCI-H647; first compound 1 µM) was 0.277 and the relative viability (PC-14; first compound 0.01 µM) was 1.09. The relative viability (PC-14; first compound 0.03162 µM) was 1.02, the relative viability (PC-14; first compound 0.1 µM) was 1.02 and the relative viability (PC-14; first compound 0.3162 µM) was 0.895. It also gave a relative viability (PC-14; first compound 1 µM) of 0.512, a relative viability (RERF-LC-KJ; first compound 0.01 µM) of 1.15 and a relative viability (RERF-LC-KJ; first compound 0.03162 µM) of 0.913. The relative viability (RERF-LC-KJ; first compound 0.1 µM) was 1.12, the relative viability (RERF-LC-KJ; first compound 0.3162 µM) was 1.21 and the relative viability (RERF-LC-KJ; first compound 1 µM) was 0.878.
